{"source": "ChEMBL document CHEMBL4000183", "about": "“Phenylpropanoids from Juglans mandshurica exhibit cytotoxicities on liver cancer cell lines through apoptosis induction” (Bioorg Med Chem Lett, 2017)", "key": {"[1]": {"test_system": "HepG2", "experiment": "Cytotoxic activity against human HepG2 cells assessed as growth inhibition after 48 hrs by MTT assay", "assay_type": "functional, cell-based"}, "[2]": {"test_system": "Hep 3B2", "experiment": "Cytotoxic activity against human Hep3B cells assessed as growth inhibition after 48 hrs by MTT assay", "assay_type": "functional, cell-based"}}}
{"molecule": "CC(/C=C\\Oc1ccc(/C=C/CO)cc1)CO", "note": "(stereo not given)", "values": [{"measurement": "growth inhibition (GI)", "setting": "[1]", "result": 7.81, "unit": "%"}, {"measurement": "growth inhibition (GI)", "setting": "[2]", "result": -15.72, "unit": "%"}]}
{"molecule": "CC(/C=C\\Oc1ccc(CCCO)cc1)CO", "note": "(single isomer, unassigned; (+))", "values": [{"measurement": "growth inhibition (GI)", "setting": "[1]", "result": 13.76, "unit": "%"}, {"measurement": "growth inhibition (GI)", "setting": "[2]", "result": 69.59, "unit": "%"}]}
{"molecule": "CC(CO)CCOc1ccc(/C=C/CO)cc1", "note": "(stereo not given)", "values": [{"measurement": "growth inhibition (GI)", "setting": "[1]", "result": 9.26, "unit": "%"}, {"measurement": "growth inhibition (GI)", "setting": "[2]", "result": 7.75, "unit": "%"}]}
{"molecule": "COC(=O)/C=C/c1ccc(OCCC(C)CO)cc1", "note": "(stereo not given)", "values": [{"measurement": "growth inhibition (GI)", "setting": "[1]", "result": 39.48, "unit": "%"}, {"measurement": "growth inhibition (GI)", "setting": "[2]", "result": 14.7, "unit": "%"}]}
{"molecule": "CC(CO)CCOc1ccc(C=O)cc1", "note": "(stereo not given)", "values": [{"measurement": "growth inhibition (GI)", "setting": "[1]", "result": -1.05, "unit": "%"}, {"measurement": "growth inhibition (GI)", "setting": "[2]", "result": 27.41, "unit": "%"}]}
